Measured values: ChEMBL document CHEMBL1201862, “PubChem BioAssay data set” (2004)
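The compound was tested at five concentrations on cells cultured in 96-well plates, with a 48-hour exposure period. GI50 is the concentration that inhibits growth by half.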 Active and inactive are the calls of the source. No stated cut-off is given here; in the data, active = GI50 up to about 1.1 µM and inactive = higher.

Tests used:
Test in all cases: NCI-60 cell line screen, 48 h
TK-10 = test system: TK-10
NCI-H226 = test system: NCI-H226
CAKI-1 = test system: CAKI-1
CCRF-CEM = test system: CCRF-CEM
NCI-H23 = test system: NCI-H23
HOP-18 = test system: HOP-18
DLD-1 = test system: DLD-1
MOLT-4 = test system: MOLT-4
HCT-15 = test system: HCT-15
LOX IMVI = test system: LOX IMVI
SN12C = test system: SN12C
UO-31 = test system: UO-31
RXF 631 = test system: RXF 631
DMS-114 = test system: DMS-114
OVCAR-5 = test system: OVCAR-5
SK-MEL-28 = test system: SK-MEL-28
HCC 2998 = test system: HCC 2998
HT-29 = test system: HT-29
COLO 205 = test system: COLO 205
SF-268 = test system: SF-268
HL-60 = test system: HL-60
SF-539 = test system: SF-539
HCT-116 = test system: HCT-116
HOP-62 = test system: HOP-62
KM12 = test system: KM12
A549 = test system: A549
SNB-19 = test system: SNB-19
SNB-78 = test system: SNB-78
HOP-92 = test system: HOP-92
U-251 = test system: U-251
SK-OV-3 = test system: SK-OV-3
EKVX = test system: EKVX
OVCAR-8 = test system: OVCAR-8
SW-620 = test system: SW-620
UACC-257 = test system: UACC-257
M14 = test system: M14
786-0 = test system: 786-0
SF-295 = test system: SF-295
OVCAR-3 = test system: OVCAR-3
A498 = test system: A498
OVCAR-4 = test system: OVCAR-4
DMS-273 = test system: DMS-273
UACC-62 = test system: UACC-62
SNB-75 = test system: SNB-75
RXF 393 = test system: RXF 393
K562 = test system: K562
SK-MEL-2 = test system: SK-MEL-2
M19-MEL = test system: M19-MEL
NCI-H460 = test system: NCI-H460
ACHN = test system: ACHN
IGROV-1 = test system: IGROV-1
SK-MEL-5 = test system: SK-MEL-5

CN(C)CCNC(=O)c1cccc2c1nc(-c1cccnc1)c1ccccc12
GI50 (TK-10): 2.25 µM (inactive) | GI50 (NCI-H226): 2.3 µM (inactive) | GI50 (CAKI-1): 2.45 µM (inactive) | GI50 (CCRF-CEM): 4.29 µM (inactive) | GI50 (NCI-H23): 4.24 µM (inactive) | GI50 (HOP-18): 21.6 µM (inactive) | GI50 (DLD-1): 4.1 µM (inactive) | GI50 (MOLT-4): 0.311 µM (active) | GI50 (HCT-15): 3.74 µM | GI50 (LOX IMVI): 2.15 µM (inactive) | GI50 (SN12C): 3.3 µM (inactive) | GI50 (UO-31): 2.69 µM (inactive) | GI50 (RXF 631): 1.96 µM (inactive) | GI50 (DMS-114): 4.91 µM (inactive) | GI50 (OVCAR-5): 8.83 µM (inactive) | GI50 (SK-MEL-28): 11.1 µM (inactive) | GI50 (HCC 2998): 6.9 µM (inactive) | GI50 (HT-29): 3.76 µM (inactive) | GI50 (COLO 205): 4.47 µM (inactive) | GI50 (SF-268): 6.05 µM (inactive) | GI50 (HL-60): 1.97 µM (inactive) | GI50 (SF-539): 2.65 µM (inactive) | GI50 (HCT-116): 2.95 µM (inactive) | GI50 (HOP-62): 6.24 µM (inactive) | GI50 (KM12): 6.78 µM (inactive) | GI50 (A549): 1.21 µM (inactive) | GI50 (SNB-19): 7.05 µM (inactive) | GI50 (SNB-78): 8.18 µM (inactive) | GI50 (HOP-92): 5.31 µM (inactive) | GI50 (U-251): 3.75 µM (inactive) | GI50 (SK-OV-3): 10 µM (inactive) | GI50 (EKVX): 4.24 µM (inactive) | GI50 (OVCAR-8): 4.81 µM (inactive) | GI50 (SW-620): 2.17 µM (inactive) | GI50 (UACC-257): 3.89 µM (inactive) | GI50 (M14): 6.67 µM (inactive) | GI50 (786-0): 5.04 µM (inactive) | GI50 (SF-295): 4.72 µM (inactive) | GI50 (OVCAR-3): 10.1 µM (inactive) | GI50 (A498): 1.61 µM (inactive) | GI50 (OVCAR-4): 4.91 µM (inactive) | GI50 (DMS-273): 3.02 µM (inactive) | GI50 (UACC-62): 3.57 µM (inactive) | GI50 (SNB-75): 9.35 µM (inactive) | GI50 (RXF 393): 4.71 µM (inactive) | GI50 (K562): 5.98 µM (inactive) | GI50 (SK-MEL-2): 10.6 µM (inactive) | GI50 (M19-MEL): 5 µM (inactive) | GI50 (NCI-H460): 0.303 µM (active) | GI50 (ACHN): 2.58 µM (inactive) | GI50 (IGROV-1): 1.73 µM (inactive) | GI50 (SK-MEL-5): 3.37 µM (inactive)
